Laboratory results from patent US20240041898A9, “NEUROSTEROIDS AND ENANTIOMERS THEREOF FOR THE PREVENTION AND TREATMENT OF NEURODEGENERATIVE CONDITIONS” (priority 2019, published 2024).
Several values for one entry are separate records, joined by “and”; a condition that tells them apart may be missing. Equal entries are not always repeated.

Tests used:
TUNEL-positive RGCs = test: Rat in vivo OHT model, TUNEL staining; conditions: OHT eyes, intravitreal, three weeks after bead injection; single values
Protocol: Example 7. Rat in vivo OHT model induced by intracameral injection of microbeads—For induction of ocular hypertension (OHT) in vivo, sterile 6 μm polystyrene microbeads were injected into the anterior chamber of the left eye of each animal using a single-step, sclero-corneal tunnel approach with a 35G nanoneedle (FIG. 4A). […] After stabilization of elevated IOP, animals were randomly divided into 3 groups (non-treated OHT, AlloP injection, and ent-AlloP injection). AlloP and ent-AlloP were administered as a one-time intravitreal injection one week following bead injection. Non-treated OHT animals received sterile vehicle intravitreally. […]
Apoptosis—To visualize apoptotic cells, a DeadEnd™ Colorimetric TUNEL (TdT-mediated dUTP Nick-End Labeling) System (Promega, Madison, WI) was used according to the manufacturer's instructions. […] After the length of each retinal section was measured (Image-Pro Plus software), the cells were counted in the whole section length and the number of cells was normalized per 200 μm of retinal section. The number of apoptotic cells was evaluated by Dunnett's multiple comparison test to determine changes in the density of apoptotic cells among experimental retinas treated with 1 μM AlloP or 1 μM ent-AlloP at 75 mmHg and control retinas incubated with aCSF at 75 mmHg. […]

optic nerve axons = test: Rat in vivo OHT model, density of optic nerve axons; conditions: OHT eyes, intravitreal, 3 weeks after microbead injection; single values
Protocol: (§1) Example 7. Rat in vivo OHT model induced by intracameral injection of microbeads—For induction of ocular hypertension (OHT) in vivo, sterile 6 μm polystyrene microbeads were injected into the anterior chamber of the left eye of each animal using a single-step, sclero-corneal tunnel approach with a 35G nanoneedle (FIG. 4A). […] After stabilization of elevated IOP, animals were randomly divided into 3 groups (non-treated OHT, AlloP injection, and ent-AlloP injection). AlloP and ent-AlloP were administered as a one-time intravitreal injection one week following bead injection. Non-treated OHT animals received sterile vehicle intravitreally. As a further control, vehicle was intravitreally injected 7 days after intracameral administration of 10 μl of PBS. Three weeks after bead injections, IOP was 26.7±3.7 mmHg in non-treated OHT eyes compared to 9.9±0.9 mmHg in control eyes.
Example 9. RGC survival by neurosteroids during IOP elevation—In whole mounted retinas, glaucomatous damage was visible as reduced numbers of cells that were positive for NeuN three weeks after microbead injection in non-treated OHT eyes compared with control eyes (FIG. 4J, 4K). […] In sections of optic nerves stained with 2% toluidine blue, axonal loss was detected 3 weeks after microbead injection in non-treated OHT eyes compared with control eyes (FIG. 4O, 4p). […]

[1] = tested on: NFL and optic nerves (ON); test: Rat in vivo OHT model, electron microscopy of AP and DAV in NFL and optic nerve; conditions: in vivo OHT eyes; for Autophagosomes (AP) in the NFL (FIG. 5M), Total / Degenerative autophagic vacuoles (DAV) in the NFL (FIG. 5N), Total: Total of 10 areas; for Autophagosomes (AP)/25 μm2 in the NFL (FIG. 5M), individual areas 1-10 / Degenerative autophagic vacuoles (DAV)/25 μm2 in the NFL (FIG. 5N), individual areas 1-10 / Autophagosomes (AP)/100 μm2 in the ON (FIG. 5Y), individual areas 1-10 / Degenerative autophagic vacuoles (DAV)/100 μm2 in the ON (FIG. 5Z), individual areas 1-10: single values
Protocol: as §1
Rat in vivo OHT model—8-week old male Sprague-Dawley rats were deeply anesthetized with an intraperitoneal injection of a mixture of medetomidine hydrochloride (Cat #133-17474, CAS. No 86347-15-1, Wako Pure Chemical Industries Ltd., Osaka, Japan, 0.15 mg/kg), midazolam (Cat #135-13791, CAS. No 58786-99-5, Wako Pure Chemical Industries Ltd., 2 mg/kg), and butorphanol tartrate (Cat #021-19001, CAS. No […], Wako Pure Chemical Industries Ltd., 2.5 mg/kg), and intraocular pressure was increased unilaterally to approximately 35 mmHg, by intracameral injection of polystyrene microbeads using a single-step, sclero-corneal tunnel approach with a 35G-gauge nanoneedle (#LNAN-3505LM, Saito Medical Instruments Inc., Tokyo, Japan) connected to 100 μl WPI Nanofil 100 microsyringe (World Precision Instruments, Inc., Sarasota, FL). Sterile 6 μm polystyrene microbeads in a 1×10^6 microbeads/ml solution (Molecular Probes, Eugene, OR, USA) were concentrated to obtain a 1×10^7 microbeads/ml solution. This solution was suspended in PBS. The microbeads suspended in PBS were aspirated into a 100 μl Hamilton microsyringe and injected into the anterior chamber of […] of each animal. 10 μl of the microbead suspension were injected without contacting the cornea or iris with the needle. After stabilization of the elevated IOP, animals were randomly divided into 3 groups (non-treated OHT, AlloP injection, and ent-AlloP injection). AlloP and ent-AlloP were dissolved in 20% w/v (2-Hydroxypropyl)-β-cyclodextrin (2HBCD) in saline solution at concentration of 0.05% (w/v) solution, and injected into the vitreous chamber in a total volume of 1 μl using a Hamilton syringe adapted with a 35 G-gauge nanoneedle 1 week after the beads were injected under halothane inhalation anesthesia. OHT animals (vehicle control) received sterile 1 μl 20% (w/v) 2HBCD with PBS. As a further control, 1 μl 20% (w/v) 2HBCD was intravitreally injected 7 days after intracameral injection with 10 μl of PBS. The number of animals used in each experiment is indicated in the corresponding method. […] Ocular hypertension was monitored preoperatively, and at 3 days, 1 week, 2 weeks or 3 weeks after the beads were injected. IOP was measured using a laboratory tonometer (TonoLab, Icare, Finland).
Electron Microscopy—Retinal specimens were trimmed to a smaller size, and ultrathin sections (75 nm) were cut with a diamond knife and suspended over formvar-coated slot grids (1×2 mm opening). The sections were stained with uranyl acetate and lead citrate and viewed in a transmission electron microscope (H-7650, Hitachi High-Technologies Corp., Tokyo, Japan). Numbers of AP and DAV inside NFLs and axons were determined as the sum in 10 different areas of 25 μm^2 each from each sample. The analysis was performed in three eyes per experimental condition.

GABAA receptors = conditions: cited from earlier work

Row | Compound | TUNEL staining (FIG. 4I), number of TUNEL-positive RGCs, individual 1-5 (TUNEL-positive RGCs) | Density of axons in ONs, individual 1-5 (optic nerve axons) | Degenerative autophagic vacuoles (DAV)/25 μm2 in the NFL (FIG. 5N), Average ([1]; intravitreal, Average of 10) | Autophagosomes (AP) in the NFL (FIG. 5M), Total ([1]; intravitreal) | Degenerative autophagic vacuoles (DAV) in the NFL (FIG. 5N), Total ([1]; intravitreal) | Autophagosomes (AP)/25 μm2 in the NFL (FIG. 5M), individual areas 1-10 ([1]; intravitreal) | Degenerative autophagic vacuoles (DAV)/25 μm2 in the NFL (FIG. 5N), individual areas 1-10 ([1]; intravitreal) | Autophagosomes (AP)/100 μm2 in the ON (FIG. 5Y), Average ([1]; optic nerve, Average of 10) | Degenerative autophagic vacuoles (DAV)/100 μm2 in the ON (FIG. 5Z), Average ([1]; optic nerve, Average of 10) | Autophagosomes (AP)/100 μm2 in the ON (FIG. 5Y), individual areas 1-10 ([1]; optic nerve) | Degenerative autophagic vacuoles (DAV)/100 μm2 in the ON (FIG. 5Z), individual areas 1-10 ([1]; optic nerve) | action on GABAA receptors (GABAA receptors)
1 | CC(=O)[C@H]1CC[C@H]2[C@@H]3CC[C@H]4C[C@H](O)CC[C@]4(C)[C@H]3CC[C@]12C [AlloP, allopregnanolone] | 1 per 200 μm of retinal sections (2×) and 0 per 200 μm of retinal sections (3×) | 33 Axons × 10000/square mm (2×) and 27 Axons × 10000/square mm and 32 Axons × 10000/square mm and 29 Axons × 10000/square mm | 0.5 /25 μm2 | 12 | 5 | 2 /25 μm2 (2×) and 1 /25 μm2 (8×) | 0 /25 μm2 (7×) and 2 /25 μm2 (2×) and 1 /25 μm2 | 1.1 /100 μm2 | 0.0 /100 μm2 | 1 /100 μm2 (9×) and 2 /100 μm2 | 0 /100 μm2 | strong enhancer
2 | CC(=O)[C@@H]1CC[C@@H]2[C@H]3CC[C@@H]4C[C@@H](O)CC[C@@]4(C)[C@@H]3CC[C@]21C [ent-AlloP, ent-allopregnanolone] | 1 per 200 μm of retinal sections (2×) and 0 per 200 μm of retinal sections (3×) | 31 Axons × 10000/square mm and 33 Axons × 10000/square mm and 32 Axons × 10000/square mm and 29 Axons × 10000/square mm and 27 Axons × 10000/square mm |  | 1 | 22 | 0 /25 μm2 (9×) and 1 /25 μm2 | 1 /25 μm2 and 2 /25 μm2 (5×) and 4 /25 μm2 (2×) and 3 /25 μm2 and 0 /25 μm2 |  |  | 0 /100 μm2 (9×) and 1 /100 μm2 | 0 /100 μm2 and 1 /100 μm2 (8×) and 2 /100 μm2 | weak actions
